Laboratory results reported in patent US20250122219A1 (priority 2023, published 2025).

What was measured:
[1] = Cytotoxicity assay in MT-4 cells; format: cell-based; conditions: human; uninfected MT-4 cells, 5 days incubation, Cell Titer Glo; read-out: MT4 CC50
In short: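 Uninfected MT-4 cells exposed to serially diluted compounds in RPMI with 10% FBS for 5 days at 37 °C. Viability by Cell Titer Glo chemiluminescence. Puromycin […] as baseline cytotoxicity control.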

[2] = system: HIV-1 (IIIB); assay: Antiviral assay in MT-4 cells; format: cell-based; conditions: Human immunodeficiency virus 1, MT4, 120 h; HIV-1 IIIB in MT-4 cells, 5 days incubation, Cell Titer Glo; read-out: MT4 EC50
In short: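 HIV-1 IIIB-infected MT-4 cells (fresh 1:250 virus stock dilution; mock-infected controls) incubated 5 days at 37 °C with serially diluted compounds in RPMI/10% FBS; 5 μM AZT as positive control. Cell viability read by CellTiter-Glo luminescence as measure of protection from viral replication.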

SMILES	CC50 at 5 days [1] [µM]	EC50 [2] [nM]
CC1=NO[C@@]2(CC[C@H](C)N3C[C@H]2n2cc(C(=O)NCc4ccc(F)cc4F)c(=O)c(OCOC(=O)OCCCCC(C)C)c2C3=O)C1 [Example 205, (((3′S,5S,7′R)-10′-((2,4-difluorobenzyl)carbamoyl)-3,3′-dimethyl-1′,11′-dioxo-1′,4′,5′,11′-tetrahydro-3′H,4H,7′H-spiro[isoxazole-5,6′-[2,7]methanopyrido[1,2-a][1,4]diazonin]-12′-yl)oxy)methyl (5-methylhexyl) carbonate]	23.1	2.47
COC1=NO[C@@]2(CC[C@H](C)N3C[C@H]2n2cc(C(=O)NCc4ccc(F)cc4F)c(=O)c(OCOC(=O)OCCCCC(C)C)c2C3=O)C1 [Example 206, (((3′S,5S,7′R)-10′-((2,4-difluorobenzyl)carbamoyl)-3-methoxy-3′-methyl-1′,11′-dioxo-1′,4′,5′,11′-tetrahydro-3′H,4H,7′H-spiro[isoxazole-5,6′-[2,7]methanopyrido[1,2-a][1,4]diazonin]-12′-yl)oxy)methyl (5-methylhexyl) carbonate]	37.2	2.44
CC1=NO[C@@]2(CC[C@H](C)N3C[C@H]2n2cc(C(=O)NCc4ccc(F)cc4F)c(=O)c(OCOC(=O)OCCCCCC(C)C)c2C3=O)C1 [Example 207, (((3′S,5S,7′R)-10′-((2,4-difluorobenzyl)carbamoyl)-3,3′-dimethyl-1′,11′-dioxo-1′,4′,5′,11′-tetrahydro-3′H,4H,7′H-spiro[isoxazole-5,6′-[2,7]methanopyrido[1,2-a][1,4]diazonin]-12′-yl)oxy)methyl (6-methylheptyl) carbonate]	11.3	0.564
COC1=NO[C@@]2(CC[C@H](C)N3C[C@H]2n2cc(C(=O)NCc4ccc(F)cc4F)c(=O)c(OCOC(=O)OCCCCCC(C)C)c2C3=O)C1 [Example 208, (((3′S,5S,7′R)-10′-((2,4-difluorobenzyl)carbamoyl)-3-methoxy-3′-methyl-1′,11′-dioxo-1′,4′,5′,11′-tetrahydro-3′H,4H,7′H-spiro[isoxazole-5,6′-[2,7]methanopyrido[1,2-a][1,4]diazonin]-12′-yl)oxy)methyl (6-methylheptyl) carbonate]	21.3	0.594
CC1=NO[C@@]2(CC[C@H](C)N3C[C@H]2n2cc(C(=O)NCc4ccc(F)cc4F)c(=O)c(OCOC(=O)OCCCCCCCC(C)C)c2C3=O)C1 [Example 211, (((3′S,5S,7′R)-10′-((2,4-difluorobenzyl)carbamoyl)-3,3′-dimethyl-1′,11′-dioxo-1′,4′,5′,11′-tetrahydro-3′H,4H,7′H-spiro[isoxazole-5,6′-[2,7]methanopyrido[1,2-a][1,4]diazonin]-12′-yl)oxy)methyl (8-methylnonyl) carbonate]	36.7	3.73
COC1=NO[C@@]2(CC[C@H](C)N3C[C@H]2n2cc(C(=O)NCc4ccc(F)cc4F)c(=O)c(OCOC(=O)OCCCCCCCC(C)C)c2C3=O)C1 [Example 212, (((3′S,5S,7′R)-10′-((2,4-difluorobenzyl)carbamoyl)-3-methoxy-3′-methyl-1′,11′-dioxo-1′,4′,5′,11′-tetrahydro-3′H,4H,7′H-spiro[isoxazole-5,6′-[2,7]methanopyrido[1,2-a][1,4]diazonin]-12′-yl)oxy)methyl (8-methylnonyl) carbonate]	≥ 50	8.6
COC[C@@H](C)OC(=O)OCOc1c2n(cc(C(=O)NCc3ccc(F)cc3F)c1=O)[C@@H]1CN(C2=O)[C@@H](C)CC[C@]12CC(C)=NO2 [Example 213, (((3′S,5S,7′R)-10′-((2,4-difluorobenzyl)carbamoyl)-3,3′-dimethyl-1′,11′-dioxo-1′,4′,5′,11′-tetrahydro-3′H,4H,7′H-spiro[isoxazole-5,6′-[2,7]methanopyrido[1,2-a][1,4]diazonin]-12′-yl)oxy)methyl ((R)-1-methoxypropan-2-yl) carbonate]	≥ 50	8.29
